Patent US5587402A, “Regression of mammalian leukemia cell tumors” (priority 1995, dated 1996)
Entries after “also recorded” stand apart in the source; their conditions may differ.

Key:
[1] = system: DMBA-induced rat mammary carcinomas; assay: Pair-feeding study: regression and inhibition of DMBA-induced mammary carcinomas in rats; assay type: in vivo, Wistar-Furth female rats
Procedure: We used Wistar-Furth female rats for in vivo studies. Wistar-Furth female rats were obtained from Harlan Sprague-Dawley, Inc., (Madison, Wis.). […] Rates were provided Teklad Lab blox chow and acidified water ad libitum.
The DMBA was dissolved in a stock solution of 20 mg DMBA/ml sesame oil, heated and allowed to cool to room temperature before administration. DMBA (Eastman Kodak, Rochester, N.Y.) was given as a single gastric intubation of 50 mg DMBA/kg rat body weight.
In the pair-feeding study, a group of 70 mammals was treated with DMBA. Beginning four weeks post-carcinogen administration, mammals were weighed and palpated weekly.
Fresh diets were make every 7-10 days. All mammals were provided fresh diet daily to minimize evaporation of the monoterpenes.
In a pair-feeding study, all palpable mammary tumors were classified as either "primary" tumors (i.e., the first tumor(s) palpated with a minimum diameter of 3 mm) or "secondary" tumors (i.e. a palpable tumor arising after initial diet assignment). […] All carcinogen-exposed mammals not bearing a first palpable tumor by week 15 post-carcinogen were removed from the experiment. Complete regression of a tumor was defined as non-palpability for a minimum of three consecutive weeks. All mammals in the pair-feeding study were followed for a minimum of 10 weeks post-diet assignment for tumor growth or regression at primary tumor sites and all other mammary glands. The rats were necropsied if moribund. Complete necropsies were performed on all rats at the termination of the study.

[2] = system: bcr/abl-induced leukemia in mice; assay: bcr/abl-induced leukemia in mice fed perillyl alcohol diet; assay type: in vivo, mouse; conditions: diet containing 2% perillyl alcohol
Description: Experiments were done in which the non-malignant mouse bone marrow cell line, FDC-P1, was transformed with a retrovirus engineered to express the p210 bcr/abl oncogene. As described above, the bcr/abl oncogene plays a major role in the development of human Philadelphia chromosome (Ph) positive leukemias. Therefore, this mouse system represents a model of Ph^+ human leukemia. Injection of syngeneic animals with the bcr/abl transformed FDC-P1 cells induces lethal hematopoietic malignancy in which all animals had died within 30 days post-injection (absent perillyl alcohol).
Animals were fed either a control diet or a diet containing 2% perillyl alcohol and were challenged with either 3×10^5 or 3×10^6 bcr/abl-transformed cells. All animals on the control diet died by day 26.

[3] = system: nontransformed FDC-P1 cells; assay: Cell cycle distribution of nontransformed FDC-P1 cells; assay type: cell-based, murine; conditions: for Cell cycle distribution (% > GO /G1): 24 hours, untreated control 62
Procedure: Table 3 tabulates the effect of P-OH on cell cycle distribution of nontransformed and p210 transformed FDC-P1 cells.
^1 Cells were plated at 2.5 × 10^5 per ml in duplicate well
of a 24well plate in the presence of 10% WEHI3-conditioned media as a
source of IL3 and with the indicated concentration of P--OH. After 24
hours, the cells were fixed in ethanol, permeabilized and stained with
propidium iodide, then analyzed for DNA content by flow cytometry.
^2 FDCP1 = nontransformed cells, Fp210.1 = 210transformed FDCP1 cells

[4] = Toxicity of dietary perillyl alcohol in rats; assay type: in vivo, Wistar-Furth female rats
Procedure: We used Wistar-Furth female rats for in vivo studies. Wistar-Furth female rats were obtained from Harlan Sprague-Dawley, Inc., (Madison, Wis.). All rats, arriving at 43-48 days of age, were housed at four rats per cage in wire-bottom metal cages and all were maintained with a light/dark cycle of 12 hours. Rates were provided Teklad Lab blox chow and acidified water ad libitum.
In the pair-feeding study, a group of 70 mammals was treated with DMBA. Beginning four weeks post-carcinogen administration, mammals were weighed and palpated weekly. Upon palpation of the first mammary tumor(s) (diameter≥3 mm), mammals were randomly assigned to control or 2.5% (w/w) perillyl alcohol diet and pair-fed.
Perillyl alcohol (>96% pure by GC analysis, Aldrich, Milwaukee, Wis.) and Teklad 4% mouse/rat diet meal were thoroughly mixed and stored at -20° C. Fresh diets were make every 7-10 days. All mammals were provided fresh diet daily to minimize evaporation of the monoterpenes. For pair-feeding, the quantity of diet consumed by the monoterpene-fed mammals was measured every 24 hours and the assigned partner was pair-fed accordingly.

[5] = system: isoprenylation of 21-26 kDa proteins in HT29 cells; assay: Protein isoprenylation in HT29 cells; assay type: cell-based; conditions: Homo sapiens, HT-29; 1 mM; read-out: decrease of isoprenylation of 21-26 kDa proteins
Procedure: "Isoprenylation" is the addition of a multiple of the 5 carbon isoprene unit to a protein. Our experiments in isoprenylation are reported at Crowell, et al. 1991, J. Biol. Chem. 266: 17679-17685. To test whether a specific monoterpene affects isoprenylation of proteins in cells, cell extracts were incubated with a radioactive isoprene precursor and 0-5 mM of the test monoterpene and then subjected to SDS-PAGE. Because they carried a radioactive label, isoprenylated proteins were visualized by fluorography. As a control, cells were incubated without the monoterpene.
Cells were harvested after trypsin treatment, washed twice with phosphate-buffered saline, suspended in electrophoresis sample buffer (Laemmli, U.K., 1970, Nature 227: 680-685), and either analyzed immediately or stored at -20° C. Whole cell extracts were analyzed by SDS-PAGE on 16-cm×18-cm×0.75-mm gels by the method of Laemmli (supra). The acrylamide concentrations were 5% for the stacking gel and 12% for the separating gel. […] Some fluorograms were analyzed further by densitometry. Where indicated, gels were sliced, dissolved at 50° C. for 3 hours in 0.5 ml of water +0.5 ml of Solvable (Amersham), and then analyzed by scintillation spectrometry in 10 ml of Atomlight (Amersham) mixture. Protein content was measured by the method of Lowry, et al. (1951, J. Biol. Chem. 193: 265-275). […]

[6] = system: isoprenylation of 21-26 kDa proteins in M600B cells; assay: Protein isoprenylation in M600B human mammary epithelial cells; assay type: cell-based

C=C(C)[C@@H]1CC=C(CO)CC1 [perillyl alcohol]
development of secondary tumors ([1]; 2.5% perillyl alcohol diet): inhibited the development of secondary tumors
Primary Tumor Regression (tumors regressed / tumors) ([1]; 2.5% perillyl alcohol diet, complete regression, pair-fed control 9/29, listed as POH): 22/27
Primary Tumor Regression (%) ([1]; 2.5% perillyl alcohol diet, complete regression, pair-fed control 31%): 81%
Number of Secondary Tumors/Rat ([1]; 2.5% perillyl alcohol diet, pair-fed control 1.62): 0.04
Time to Regress ([1]; 2.5% perillyl alcohol diet, pair-fed control 5.6, listed as POH): 3.6 ± 0.3 wks
Secondary Tumor Regression (tumors regressed / tumors) ([1]; 2.5% perillyl alcohol diet, pair-fed control 11/42): 0/1
Secondary Tumor Regression (%) ([1]; 2.5% perillyl alcohol diet, pair-fed control 26%): 0%
secondary tumors / mammals ([1]; 2.5% perillyl alcohol diet, pair-fed control 42/26): 1/26
amount of perillyl alcohol needed relative to the amount of limonene ([1]; 2.5% perillyl alcohol versus 10% limonene diet): 25%
time for a primary tumor to regress to a non-palpable mass ([1]; perillyl alcohol-treated group versus pair-fed controls): shorter than the time for spontaneous regression in the pair-fed controls
animals surviving longer than control animals ([2]; 3×10^5 or 3×10^6 cells, controls all died by day 26): about 20%
diet acceptance ([2]; most mice): most mice resisted the perillyl alcohol diet
Cell cycle distribution (% > GO /G1) ([3]; 100 μM P--OH): 57%
Cell cycle distribution (% > GO /G1) ([3]; 500 μM P--OH): 49%
changes in the cell cycle distribution ([3]; up to 500 μM): only minor changes
maximum dose tolerated (diet) ([4]; diet, data not shown): 2.5%
body weight ([4]; perillyl alcohol-fed versus control, FIG. 8): initial weight loss followed by weight gain and a plateau; also recorded: did not achieve weights similar to controls
inhibition at 1000 µM [5]: 40%
isoprenylation of 21-26 kDa proteins ([6]; 3 mM, FIG. 2): inhibited significantly
inhibition of isoprenylation ([6]; all cell types examined): inhibition of isoprenylation
